Measured values as given in PubChem BioAssay (NCI).
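Each compound was tested at five concentrations against cells in 96-well plates for 48 hours. GI50 = concentration required for 50% inhibition of growth. The concentration for full growth arrest is given as TGI.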

Columns and labels:
Experiment in all cases: NCI anticancer screen, dose series, 48 h
[1] = test system: A498 renal
[2] = test system: DU-145 prostate
[3] = test system: HCC-2998 colon
[4] = test system: HL-60(TB) leukemia
[5] = test system: NCI-H226 lung
[6] = test system: SK-MEL-28 melanoma
[7] = test system: T-47D breast
[8] = test system: TK-10 renal
[9] = test system: UACC-257 melanoma
[10] = test system: UO-31 renal

Compound | GI50 [1] [µM] | TGI [1] [µM] | GI50 [2] [µM] | TGI [2] [µM] | GI50 [3] [µM] | TGI [3] [µM] | GI50 [4] [µM] | TGI [4] [µM] | GI50 [5] [µM] | TGI [5] [µM] | GI50 [6] [µM] | TGI [6] [µM] | GI50 [7] [µM] | TGI [7] [µM] | GI50 [8] [µM] | TGI [8] [µM] | GI50 [9] [µM] | TGI [9] [µM] | GI50 [10] [µM] | TGI [10] [µM]
COc1ccccc1NS(=O)(=O)c1ccc2oc(SC(C)C)nc2c1 | 23.3 | 61.7 | 31.8 | > 100 | 27 | 51.4 | 6.09 | 29.1 | 10.3 | 43.9 | 37.5 | > 100 | 8.98 | > 100 | 18.5 | 53.8 | 1.76 | 19.1 | 18.4 | 70.3
C[C@]12CCNC(=O)C=C1CC[C@@H]1C2CC[C@@]2(C)C1CC[C@@H]2OC(=O)COc1ccc(N(CCCl)CCCl)cc1 (stereo partly specified) | – | 36.1 | – | 22 | – | 15 | – | 7.4 | – | 28.5 | – | 36.3 | – | 9.03 | – | 35.6 | – | 37.2 | – | 18.9
NNC(=O)c1ccc(OCc2nc3ccccc3[nH]2)cc1 | – | > 100 | – | > 100 | – | – | – | > 100 | – | > 100 | – | > 100 | – | > 100 | – | > 100 | – | > 100 | – | > 100
Nc1nc(=O)n([C@@H]2CS[C@H](CO)O2)cc1F | > 100 | > 100 | > 100 | > 100 | > 100 | > 100 | > 100 | > 100 | > 100 | > 100 | > 100 | > 100 | > 100 | > 100 | > 100 | > 100 | > 100 | > 100 | > 100 | > 100
CCOC(=O)c1cnn2c3ccccc3n(S(=O)(=O)c3ccc(OC)cc3)c12 | 0.209 | 0.764 | 0.395 | > 24.2 | 0.349 | 30.1 | 0.226 | 0.695 | 2.6 | > 100 | 5.98 | > 100 | 13.8 | > 100 | 25.2 | > 100 | 17.1 | > 100 | 0.56 | > 78.7
Cc1cc(Nc2cc(N3CCN(C)CC3)nc(Sc3ccc(NC(=O)C4CC4)cc3)n2)n[nH]1 | 1.74 | 8.38 | > 10 | > 10 | 5.66 | > 10 | 0.283 | > 10 | 0.737 | > 10 | 3.47 | > 10 | > 10 | > 10 | > 10 | > 10 | 3.52 | > 10 | 3.54 | > 10
Nc1nc(N)c2cc(Sc3cccc(C(F)(F)F)c3)ccc2n1 | 2.17 | 14.4 | – | 14.4 | – | 2.83 | – | 3.24 | 2.34 | 8.15 | – | 7.61 | 1.71 | 3.6 | – | 14 | 1.27 | 3.36 | – | 9.84
COc1cc(/C=C/c2cc(/C=C/c3ccc(O)c(OC)c3)n(C(=O)Nc3ccc(Cl)cc3)n2)ccc1O | 1.84 | 5.13 | 0.382 | 1.67 | 1.68 | 6.01 | 0.292 | 0.982 | 2.16 | 7.92 | 1.07 | 4.07 | 1.25 | 4.17 | 0.966 | 6.18 | 1.26 | 6.81 | 0.375 | 3.16
Cc1cccc(NC(=O)/C=C/c2ccc([N+](=O)[O-])cc2)c1 | – | > 100 | – | > 55 | – | 32.7 | – | > 24.8 | – | > 72 | – | > 57.6 | – | > 55.9 | – | > 56.8 | – | > 55.1 | – | > 50.4
N#Cc1c(N)nc(NCc2ccccc2)c(C#N)c1-c1ccc(Cl)cc1Cl | > 100 | > 100 | > 100 | > 100 | > 100 | > 100 | – | > 100 | > 100 | > 100 | > 100 | > 100 | 72.3 | > 100 | > 84.3 | > 100 | > 100 | > 100 | > 100 | > 100
O=S(=O)(Nc1ccc(F)c(Cl)c1)c1ccc(-c2cnc(C3CC3)o2)cc1 | 0.156 | 0.823 | 0.592 | 12.2 | 1.13 | 7.9 | 0.213 | 2.16 | 0.822 | 10.1 | 1.73 | 14.5 | 0.361 | 13.1 | 1.11 | 8.29 | 1.12 | 10.1 | 0.584 | 6.37
Cc1cnc(Nc2ccc(N3CCN(C)CC3)cc2)nc1Nc1ccc(Cl)c(NS(=O)(=O)C(C)(C)C)c1 | 0.178 | 0.881 | 0.303 | 11 | 0.383 | 1.84 | 0.103 | 1.02 | 0.23 | 2.09 | 0.772 | 2.73 | 0.349 | 15.5 | 0.0638 | 0.936 | 1.36 | 2.88 | 0.0877 | 1.29
O=C(Nc1cc(Oc2cc(F)c(NC(=O)C3(C(=O)Nc4ccc(F)cc4)CC3)cc2F)ccn1)C1CC1 | 2.41 | 5.18 | 3.27 | > 100 | 3.5 | > 29.4 | 2.18 | 5.6 | 2.53 | 7.98 | 1.64 | 6.33 | 2.33 | 6.61 | 4.14 | > 100 | 2.08 | 6.32 | 2.68 | 7.23
CNS(=O)(=O)OCC1OC(n2cnc3c(N)ncnc32)C(O)C1O (stereo unspecified) | > 100 | > 100 | > 100 | > 100 | > 100 | > 100 | – | – | > 100 | > 100 | > 100 | > 100 | > 100 | > 100 | > 100 | > 100 | > 100 | > 100 | > 100 | > 100
COc1cc(-n2ccnc2)cc(OC)c1OC | 35.8 | > 100 | > 100 | > 100 | 99.5 | > 100 | – | – | 36.2 | > 100 | > 100 | > 100 | > 100 | > 100 | 42.5 | > 100 | > 100 | > 100 | 21.4 | > 100
COc1cccc(/C(C)=N/NC(=O)CSc2nc3ccccc3c(=O)n2CCc2ccc(S(N)(=O)=O)cc2)c1 | 8.02 | 24.8 | 3.35 | 10.6 | 24 | 62.9 | > 100 | > 100 | 3.29 | 13 | 10.8 | 38.7 | 6.44 | 29.3 | 2.36 | 5.42 | 10.9 | 36.7 | 2.11 | 6.48
CCN1C[C@]2(COC)[C@H](O)C[C@H](OC)[C@]34C1[C@H]([C@H](OC)[C@H]23)[C@]1(OC(C)=O)[C@H]2[C@@H](OC(=O)c3ccccc3)[C@](O)(C[C@H]24)[C@@H](OC)[C@@H]1O | – | > 100 | – | > 100 | – | > 100 | – | > 100 | – | > 100 | – | > 100 | – | > 100 | – | > 100 | – | > 100 | – | > 100
NC(=Nc1ccc(N)cc1)C(N)=Nc1ccc(N)cc1 | 25.3 | > 100 | > 100 | > 100 | > 100 | > 100 | 57.1 | > 100 | > 100 | > 100 | > 100 | > 100 | > 100 | > 100 | > 100 | > 100 | > 100 | > 100 | 33.5 | > 100
O=c1oc2ccc(-c3ccc(F)cc3F)cc2c(=O)n1-c1ccc(Cl)c(C(F)(F)F)c1 | 0.656 | 2.4 | 3.75 | > 100 | 2.41 | 6.03 | 2.43 | 5.35 | 2.03 | 6.11 | 2.05 | 5.77 | 0.585 | 4.34 | 4.41 | 19.1 | 1.85 | 6.44 | 2.44 | 8.4
COc1ccc(Nc2nc3cc(N)cc(N)c3nc2-c2ccccc2)cc1OC | 11.7 | 55.7 | 45 | > 100 | 18.4 | 39.6 | – | – | 18.7 | 57.1 | 21.5 | 49.7 | 14.4 | 38.2 | 20.9 | 58.5 | 35.6 | > 100 | 28.1 | > 100
CCCCCCCC(=O)OCC(=O)[C@]1(O)Cc2c(O)c3c(c(O)c2[C@@H](OC2CC(N)C(O)C(C)O2)C1)C(=O)c1c(OC)cccc1C3=O (stereo partly specified) | 0.215 | 0.951 | 0.0266 | 0.284 | 0.137 | 0.767 | 0.0263 | 0.221 | – | – | 0.199 | 0.902 | 0.0512 | 1.2 | 0.265 | 2 | – | – | – | –
Cn1c(=S)c2[nH]c(SCCN3C(=O)c4ccccc4C3=O)nc2n(C)c1=O | – | > 100 | – | > 100 | – | – | – | > 100 | – | > 100 | – | > 100 | – | > 100 | – | > 100 | – | > 100 | – | > 100
NC(=S)N=Nc1c(O)c2ccccc2c2ccccc12 | 14.9 | 45.7 | 1.9 | 3.36 | 36.3 | > 100 | 20 | 46 | 21.3 | 70.1 | 2.98 | 10 | 14 | > 100 | 44.6 | > 94.1 | 1.72 | 3.31 | 3.26 | > 76.1
O=C1c2ccccc2C(=O)c2c(NCC3CO3)ccc(NCC3CO3)c21 (stereo unspecified) | – | > 83.9 | – | 30.2 | – | > 81.4 | – | – | – | 35.4 | – | 28.1 | – | > 42.1 | – | 45 | – | 23.9 | – | 5.13
Cc1cc(O)c(/C=N/C(=S)Nc2ccccc2)c(=O)o1 | – | > 100 | – | > 100 | – | > 100 | – | > 100 | – | > 100 | – | – | – | > 100 | – | > 100 | – | > 100 | – | > 100
CC1=C(C)C2(O)C(=C(C)C1=O)/C(=C(/O)c1ccccc1)c1nc3ccccc3n12 (stereo unspecified) | 23.7 | 45.4 | 26.8 | 68.6 | – | – | 18.3 | 56.7 | 23.6 | 58.1 | 20.6 | 49.4 | 14.5 | 33.1 | 20.1 | 58.9 | 16.5 | 33.4 | 25.6 | > 100
O=c1cc(-c2ccccc2)oc2cc(OC/C(=N/O)c3ccc(F)cc3)ccc12 | – | – | 18.1 | > 50 | 15.3 | 45.8 | 19 | > 50 | 27.6 | > 50 | 27.1 | > 50 | 25.5 | > 50 | 13.7 | 31.8 | 35.3 | > 50 | 14.7 | > 50
COc1ccc(N(/C=C/C(=O)C(F)(F)F)CC(=O)c2ccc(Cl)cc2)cc1 | 13.9 | 28.7 | 19.8 | 40.4 | 17 | 36.2 | – | – | 16.5 | 31.6 | 18.1 | 36.2 | 21.9 | > 100 | 17.7 | 40.8 | 18.4 | 37.7 | 13.4 | 28.6
